Laboratory results as given in patent publication US8071650B2, “Thiourea derivatives and the pharmaceutical compositions containing the same” (Pacific Corporation, priority 2000, dated 2011).
Where two headings read alike, the source gives them in different places. Each block holds one compound with its values, some of them ahead of it.

Tests used:
vanilloid receptor = target: T1, vanilloid receptor (Rattus norvegicus, UniProt O35433); assay: 45Ca influx test, antagonistic activity against capsaicin (Calcium Uptake Test, IC50); assay type: cell-based
T1 construct: DRG nerve cells from the primary culture of 2-3 days were equilibrated; endogenous in cells; host or cells: primary culture of dorsal root ganglion neurons from neonatal SD rats
Procedure: 1) Separation of Spinal Dorsal Root Ganglia (DRG) in Newborn Rats and Primary Culture Thereof
Neonatal(2-day old or younger than 2-day old) SD rats were put in ice for 5 minutes to anesthetize and disinfected with 70% ethanol. […] The DRG were incubated sequentially at 37° C. for 30 min in 200 U/ml collagenase and 2.5 mg/ml trypsin, separately. The ganglia were washed twice with DME/F12 medium supplemented with 10% horse serum, triturated through a fire-polished Pasteur pipette, filtered through Nitex 40 membrane to obtain single cell suspension. This was subjected to centrifugation, then re-suspended in cell culture medium at certain level of cell density. As the cell culture medium, DME/F12 medium supplemented with 10% horse serum, diluted 1:1 with identical medium conditioned by C6 glioma cells (2 days on a confluent monolayer) was used, and NGF(Nerve Growth Factor) was added to final concentration of 200 ng/ml. After the cells were grown 2 days in medium where cytosine arabinoside (Ara-C, 100 μM) was added to kill dividing nonneuronal cells, medium was changed to one without Ara-C. The resuspended cells were plated at a density of 1500-1700 neurons/well onto Terasaki plates previously coated with 10 μg/ml poly-D-ornithine.
2) ^45Ca Influx Experiments
DRG nerve cells from the primary culture of 2-3 days were equilibrated by washing 4 times with HEPES (10 mM, pH 7.4)-buffered Ca^2+, Mg^2+-free HBSS (H-HBSS). The solution in each well was removed from the individual well. Medium containing the test compound plus capsaicin (final concentration 0.5 μM) and ^45Ca (final concentration 10 μCi/ml) in H-HBSS was added to each well and incubated at room temperature for 10 min. Terasaki plates were washed six times with H-HBSS and dried in an oven. To each well, 0.3% SDS (10 μl) was added to elute ^45Ca. After the addition of […] of scintillation cocktail into each well, the amount of ^45Ca influx into neuron was measured by counting radioactivity.

Male ICR mice [1] = assay: Analgesic activity test: mouse writhing test by inducing with phenyl-p-quinone; assay type: in vivo; details: ip, 30 min before phenyl-p-quinone, read-out: Analgesic effect (% Inhibition); for inhibition in vivo at 10 mg/kg: dose 10 mg/kg intraperitoneally; for inhibition in vivo at 3 mg/kg: dose 3 mg/kg intraperitoneally
Procedure: (3) Analgesic Activity Test: Mouse Writhing Test by Inducing with phenyl-p-quinone
Male ICR mice (mean body weight 25 g) were maintained in a controlled lighting environment (12 h on/12 h off) for experiment. Animals received an intraperitoneal injection of 0.3 ml of the chemical irritant phenyl-p-quinone (dissolved in saline containing 5% ethanol to be a dose of 4.5 mg/kg) and 6 min later, the number of abdominal constrictions was counted in the subsequent 6 min period. Animals (10 animals/group) received 0.2 ml of test compounds solution in vehicle of ethanol/Tween 80/saline (10/10/80) intraperitoneally 30 min before the injection of phenyl-p-quinone. A reduction in the number of writhes responding to the test drug compound relative to the number responding in saline control group was considered to be indicative of an analgesic effect Analgesic effect was calculated by % inhibition equation (% inhibition=(C−T)/C×100), wherein C and T represent the number of writhes in control and compound-treated group, respectively (Table 2).

Male SD rats = assay: Ulcer test: ethanol-induced anti-ulcer test; assay type: in vivo, rat; details: dose 30 mg/kg orally, 1 hour before 99% ethanol
Procedure: (5) Ulcer Test: Ethanol-induced Anti-ulcer Test
Male SD rats (body weight 180-200 g), 5 animals/group, were fasted for 24 hours, and their stomaches were damaged. The rats were administered with 10 ml/kg of test drug suspended in 1% methylceflulose orally and, after 1 hour, 1 ml of 99% ethanol orally. After 1 hour without food and water, the rats were sacrificed by cervical dislocation and stomaches thereof were removed. The removed stomaches were incised along the greater curvature and opened.

Male ICR mice [2] = assay: Antiinflammatory activity test: TPA-induced mouse ear edema test; assay type: in vivo; details: dose 1 mg/ear topically, ear weight 24 h after TPA
Procedure: (4) Antiinflammatory Activity Test: TPA(12-O-tetraecanoylphorbol 13-acetate)-induced mouse ear edema test
Male ICR mice(body weight 25-30 g), 10 animals/group, were treated topically on the right ear with 30 μl of TPA (2.5 μg) solution in acetone and after 15 min, 30 μl of acetone or test compound solution in acetone was applied topically. After six hours, an identical treatment was applied again. After twenty four hours following the treatment of TPA, the animals were sacrificed and ear tissue was dissected using 6 mm-diameter punch. Ear tissue dissected were weighed to the nearest 0.1 mg on an electrobalance. The increased weight of the tissue compared to control group was considered as an index of inflammation. The percent inhibition is defined by the following equation:
% inhibition=(C−T)/C×100, wherein C and T represent an increase of ear weight in TPA-treated and TPA+drug-treated group, respectively (Table 3).

[3] = Table 1a, neonatal SD rat DRG neurons, inhibition of response to capsaicin 0.5 μM

T1 sequence (O35433 whole entry): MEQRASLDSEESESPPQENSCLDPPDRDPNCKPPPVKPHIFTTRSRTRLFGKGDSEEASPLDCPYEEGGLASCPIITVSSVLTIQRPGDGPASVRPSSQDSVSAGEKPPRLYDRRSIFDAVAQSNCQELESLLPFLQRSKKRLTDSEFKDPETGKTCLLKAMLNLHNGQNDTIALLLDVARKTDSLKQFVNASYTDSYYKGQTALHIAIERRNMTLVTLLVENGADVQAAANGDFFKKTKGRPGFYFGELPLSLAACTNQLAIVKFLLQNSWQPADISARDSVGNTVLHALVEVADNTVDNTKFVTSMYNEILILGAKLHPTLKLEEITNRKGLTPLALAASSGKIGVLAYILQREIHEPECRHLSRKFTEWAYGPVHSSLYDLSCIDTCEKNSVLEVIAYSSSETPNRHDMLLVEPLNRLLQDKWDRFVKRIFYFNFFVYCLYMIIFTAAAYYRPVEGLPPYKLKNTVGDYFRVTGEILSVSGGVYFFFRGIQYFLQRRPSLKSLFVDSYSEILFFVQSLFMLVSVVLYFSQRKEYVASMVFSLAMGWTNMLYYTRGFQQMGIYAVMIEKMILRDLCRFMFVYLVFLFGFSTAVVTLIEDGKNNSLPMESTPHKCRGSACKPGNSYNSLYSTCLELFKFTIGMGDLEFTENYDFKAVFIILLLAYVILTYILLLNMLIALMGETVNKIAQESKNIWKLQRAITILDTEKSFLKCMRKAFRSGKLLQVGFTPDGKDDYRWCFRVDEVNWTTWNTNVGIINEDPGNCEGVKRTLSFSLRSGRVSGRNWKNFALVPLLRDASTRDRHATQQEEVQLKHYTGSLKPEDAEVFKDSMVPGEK

- IC50 (vanilloid receptor): 590 nM
Compound: Oc1cc2c(cc1O)CN(C(=S)NCCc1ccc(Cl)cc1)CCC2 [Capsazepine, capsazepine, reference compound]

- IC50 (vanilloid receptor): 1100 nM
Compound: Cn1cccc1CCNC(=S)NCc1ccc(C(C)(C)C)cc1 [Example 5, 1-(4-t-butylbenzyl)-3-[2-(1-methyl-1H-pyrrol-2-yl)ethyl]thiourea]
- inhibition in vivo at 10 mg/kg (Male ICR mice [1]): 53%

- IC50 (vanilloid receptor): 230 nM
Compound: CC(C)(C)c1ccc(CNC(=S)NCc2cc(F)c(N)cc2F)cc1 [Example 9, 1-(4-amino-2,5-difluorobenzyl)-3-(4-t-butylbenzyl)thiourea]

- IC50 (vanilloid receptor; [3]): 37 nM
Compound: CC(C)(C)c1ccc(CNC(=S)NCc2ccc(NS(C)(=O)=O)c(F)c2)cc1 [Example 13, 1-(4-t-butylbenzyl)-3-(3-fluoro-4-methanesulfonylaminobenzyl)thiourea]
- inhibition in vivo at 10 mg/kg (Male ICR mice [1]): 82%
- Anti-ulcerous effect (% inhibition) (Male SD rats): 30%
- Anti-inflammtory effect (% Inhibition) (Male ICR mice [2]): 74%

- IC50 (vanilloid receptor): 1200 nM
Compound: CS(=O)(=O)Nc1ccc(CNC(=S)NCCc2ccccc2)cc1F [Example 15, 1-phenethyl-3-(3-fluoro-4-methanesulfonylaminobenzyl)thiourea]

- IC50 (vanilloid receptor; [3]): 8.4 nM
Compound: CC(C)(C)c1ccc(CNC(=S)NCc2ccc(NS(C)(=O)=O)c(Cl)c2)cc1 [Example 17]
- inhibition in vivo at 10 mg/kg (Male ICR mice [1]): 98%
- Anti-ulcerous effect (% inhibition) (Male SD rats): 58%
- Anti-inflammtory effect (% Inhibition) (Male ICR mice [2]): 80%

- IC50 (vanilloid receptor; [3]): 720 nM
Compound: COC(=O)c1cc(CNC(=S)NCc2ccc(C(C)(C)C)cc2)ccc1NS(C)(=O)=O [Example 18]

- IC50 (vanilloid receptor): 5.8 nM
Compound: CC(C)(C)c1ccc(CNC(=S)NCc2ccc(NS(C)(=O)=O)c(C(=O)O)c2)cc1 [Example 19, 1-(4-t-butylbenzyl)-3-(3-carboxyl-4-methanesulfonylaminobenzyl)thiourea]

- IC50 (vanilloid receptor): 1500 nM
Compound: COC(=O)c1cccc(CNC(=S)NCc2ccc(C(C)(C)C)cc2)c1 [Example 30]

- IC50 (vanilloid receptor): 31 nM
Compound: CC(C)(C)c1ccc(CNC(=S)NCc2c(F)c(F)c(NS(C)(=O)=O)c(F)c2F)cc1 [Example 32, 1-(4-t-butylbenzyl)-3-(2,3,5,6-tetrafluoro-4-methanesulfonylaminobenzyl)thiourea]

- IC50 (vanilloid receptor): 110 nM
Compound: CC(C)(C)c1ccc(CNC(=S)NCc2cc(F)c(NS(C)(=O)=O)cc2F)cc1 [Example 33, 1-(4-t-butylbenzyl)-3-(2,5-difluoro-4-methanesulfonylaminobenzyl)thiourea]
- Anti-ulcerous effect (% inhibition) (Male SD rats): 31%
- Anti-inflammtory effect (% Inhibition) (Male ICR mice [2]): 66%

- IC50 (vanilloid receptor): 1100 nM
Compound: CC(C)(C)c1ccc(CNC(=S)NCCc2ccc(NS(C)(=O)=O)cc2)cc1 [Example 36, 1-(4-t-butylbenzyl)-3-(4-methanesulfonylaminophenethyl)thiourea]

Compound: CC(C)(C)c1ccc(CNC(=S)NCc2ccc(NS(C)(=O)=O)cc2)cc1 [Example 44]
- inhibition in vivo at 3 mg/kg (Male ICR mice [1]): 92%
- Anti-ulcerous effect (% inhibition) (Male SD rats): 36%
- Anti-inflammtory effect (% Inhibition) (Male ICR mice [2]): 83%

- IC50 (vanilloid receptor): 700 nM
Compound: CC(C)(C)c1ccc(CNC(=S)NCc2c(F)ccc(NS(C)(=O)=O)c2F)cc1 [Example 51, 1-(4-t-butylbenzyl)-3-(2,6-difluoro-3-methanesulfonylaminobenzyl)thiourea]

Compound: CC(C)(C)c1ccc(CNC(=S)NCc2cccc(NS(C)(=O)=O)c2)cc1 [Example 52, 1-(4-t-butylbenzyl)-3-(3-methanesulfonylaminobenzyl)thiourea]
- inhibition in vivo at 10 mg/kg (Male ICR mice [1]): 94%

Compound: CC(=O)OCc1cc(C(C)(C)C)ccc1CNC(=S)Nc1ccc(NS(C)(=O)=O)cc1 [Example 70, 1-(2-acetoxymethyl-4-t-butylbenzyl)-3-(4-methanesulfonylaminobenzene)thiourea]
- IC50 (vanilloid receptor; Table 1b, neonatal SD rat DRG neurons, inhibition of response to capsaicin 0.5 μM): 580 nM

- IC50 (vanilloid receptor): 1200 nM
Compound: Cc1ncsc1CCNC(=S)NCc1ccc(C(C)(C)C)cc1 [Example 73, 1-(4-t-butylbenzyl)-3-[2-(4-methylthiazol-5-yl)ethyl]thiourea]
- inhibition in vivo at 10 mg/kg (Male ICR mice [1]): 88%
- Anti-ulcerous effect (% inhibition) (Male SD rats): 22%
- Anti-inflammtory effect (% Inhibition) (Male ICR mice [2]): 77%

- IC50 (vanilloid receptor): 1100 nM
Compound: CC(C)(C)c1ccc(CNC(=S)NCCc2ccccn2)cc1 [Example 83]
- inhibition in vivo at 10 mg/kg (Male ICR mice [1]): 85%

- IC50 (vanilloid receptor): 420 nM
Compound: CC(C)(C)c1ccc(CNC(=S)NCc2cc(F)ccc2F)cc1 [Example 90]

- IC50 (vanilloid receptor): 590 nM
Compound: CC(C)(C)c1ccc(CNC(=S)NCCc2cccc(F)c2)cc1 [Example 96]
- inhibition in vivo at 10 mg/kg (Male ICR mice [1]): 58%

- IC50 (vanilloid receptor): 810 nM
Compound: Cn1cc(NS(C)(=O)=O)cc1CNC(=S)NCc1ccc(C(C)(C)C)cc1 [Example 134]

- IC50 (vanilloid receptor): 950 nM
Compound: COc1cc(CCCN(Cc2ccccc2)/C(S)=N/CCc2ccccc2)ccc1O [Example 152]

- IC50 (vanilloid receptor): 460 nM
Compound: COc1cc(CCCN(C(=S)NCCc2ccccc2)C(c2ccccc2)c2ccccc2)ccc1O [Example 161]
- inhibition in vivo at 1 mg/kg (Male ICR mice [1]; dose 1 mg/kg intraperitoneally): 73%

- IC50 (vanilloid receptor): 110 nM
Compound: CC(C)(C)c1ccc(CNC(=NC#N)NCc2ccc(NS(C)(=O)=O)cc2)cc1 [Example 178]

- IC50 (vanilloid receptor): 210 nM
Compound: CC(C)(C)c1ccc(CCC(=O)NCc2ccc(NS(C)(=O)=O)c(F)c2)cc1 [Example 193, N-(3-fluoro-4-methanesulfonylaminobenzyl) 3-(4-t-butylphenyl)propionamide]

- IC50 (vanilloid receptor): 310 nM
Compound: CNS(=O)(=O)Nc1ccc(C/N=C(\S)NCc2ccc(C(C)(C)C)cc2)cc1 [Example 194, 1-(4-t-butylbenzyl)-3-(4-methylaminosulfonylaminobenzyl)thiourea]

- IC50 (vanilloid receptor): 150 nM
Compound: CC(C)(C)c1ccc(CNC(=S)NCc2ccc(NS(N)(=O)=O)cc2)cc1 [Example 196, 1-(4-t-butylbenzyl)-3-(4-aminosulfonylaminobenzyl)thiourea]

Compound: COc1ccc2c(c1)c(CC(=O)O)c(C)n2C(=O)c1ccc(Cl)cc1 [Indomethacin, indomethacin, reference compound]
- inhibition in vivo at 3 mg/kg (Male ICR mice [1]): 94%
- Anti-inflammtory effect (% Inhibition) (Male ICR mice [2]): 74%

Compound: CNC(=C[N+](=O)[O-])NCCSCc1ccc(CN(C)C)o1 [Ranitidine, ranitidine, reference compound]
- Anti-ulcerous effect (% inhibition) (Male SD rats): 4%
